Measured values as given in ChEMBL document CHEMBL3596121, “Naphthalene and 2,3-dihydrobenzo[b][1,4]dioxine derivatives with extended side chains as new scaffolds of CB2-selective ligands” (Medchemcomm, 2014).

Key:
Cannabinoid receptor 1 [1] = target: T1, Cannabinoid receptor 1 (Homo sapiens, UniProt P21554); conditions: HEK293, at 10 µM
Description: Maximum displacement of human recombinant CB1 receptor expressed in HEK293 cell membranes at 10 uM incubated for 90 mins by radioligand binding assay

Cannabinoid receptor 1 [2] = target: T1, Cannabinoid receptor 1; test: Displacement of human recombinant CB1 receptor expressed in HEK293 cell membranes incubated for 90 mins by Cheng-Prusoff equation based analysis
Cannabinoid receptor 2 [3] = target: T2, Cannabinoid receptor 2 (Homo sapiens, UniProt P34972); conditions: HEK293, at 10 µM
Description: Maximum displacement of human recombinant CB2 receptor expressed in HEK293 cell membranes at 10 uM incubated for 90 mins by radioligand binding assay

Cannabinoid receptor 2 [4] = target: T2, Cannabinoid receptor 2; test: Displacement of human recombinant CB2 receptor expressed in HEK293 cell membranes incubated for 90 mins by radioligand binding assay; type: cell-based
Cannabinoid receptor 1 [5] = target: T1, Cannabinoid receptor 1; test: Displacement of human recombinant CB1 receptor expressed in HEK293 cell membranes incubated for 90 mins by radioligand binding assay; type: cell-based
Cannabinoid receptor 2 [6] = target: T2, Cannabinoid receptor 2; test: Displacement of human recombinant CB2 receptor expressed in HEK293 cell membranes incubated for 90 mins by Cheng-Prusoff equation based analysis
HEK293 = test: Selectivity index, ratio of Ki for human recombinant CB1 receptor expressed in HEK293 cell membranes to Ki for human recombinant CB2 receptor expressed in HEK293 cell membranes; type: cell-based

T2 sequence (P34972 whole entry): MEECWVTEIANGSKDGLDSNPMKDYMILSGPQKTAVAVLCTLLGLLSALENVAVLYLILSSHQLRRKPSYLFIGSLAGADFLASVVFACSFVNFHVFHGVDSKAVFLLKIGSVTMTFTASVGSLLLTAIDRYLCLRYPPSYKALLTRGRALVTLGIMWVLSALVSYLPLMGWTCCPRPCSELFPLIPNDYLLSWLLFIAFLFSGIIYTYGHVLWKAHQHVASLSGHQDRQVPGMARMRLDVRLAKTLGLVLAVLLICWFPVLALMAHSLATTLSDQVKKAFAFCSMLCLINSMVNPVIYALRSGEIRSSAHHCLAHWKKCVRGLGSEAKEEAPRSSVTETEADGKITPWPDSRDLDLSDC
T1 sequence (P21554 whole entry): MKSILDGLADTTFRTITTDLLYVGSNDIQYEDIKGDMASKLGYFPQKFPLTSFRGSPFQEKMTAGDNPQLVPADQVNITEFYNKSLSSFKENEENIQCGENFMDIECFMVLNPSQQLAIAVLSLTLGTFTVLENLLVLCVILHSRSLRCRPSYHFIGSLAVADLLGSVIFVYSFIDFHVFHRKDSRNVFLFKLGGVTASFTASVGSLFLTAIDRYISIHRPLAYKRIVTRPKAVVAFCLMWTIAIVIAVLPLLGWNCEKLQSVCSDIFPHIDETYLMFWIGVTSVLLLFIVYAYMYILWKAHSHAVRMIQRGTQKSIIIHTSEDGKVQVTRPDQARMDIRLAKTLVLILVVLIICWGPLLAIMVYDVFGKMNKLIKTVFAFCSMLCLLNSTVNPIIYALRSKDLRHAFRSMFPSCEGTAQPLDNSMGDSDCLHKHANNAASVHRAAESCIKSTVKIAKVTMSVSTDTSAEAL

| SMILES | Imax (Cannabinoid receptor 1 [1]) [%] | Ki (Cannabinoid receptor 1 [2]) [µM] | Imax (Cannabinoid receptor 2 [3]) [%] | IC50 (Cannabinoid receptor 2 [4]) [µM] | IC50 (Cannabinoid receptor 1 [5]) [µM] | Ki (Cannabinoid receptor 2 [6]) [µM] | Ratio Ki (HEK293) | log(ratioKi) (HEK293) |
| --- | --- | --- | --- | --- | --- | --- | --- | --- |
| CCOC(=O)CNC(=O)/C=C/C=C/c1ccc2ccccc2c1 | 2.24 | > 10 | 48.5 | > 10 | > 10 | > 10 |  |  |
| CCNC(=O)NCCCCCSc1ccc2ccccc2c1 | 16.9 | > 10 | 68.2 | 2.11 | > 10 | 0.56 | > 17.9 | 1.3 |
| CCOC(=O)CNC(=O)/C=C/C=C/c1ccc2c(c1)-c1ccccc1C2 | 5.47 | > 10 | 39.1 | > 10 | > 10 | > 10 |  |  |
| CCS(=O)(=O)NCCCCCOc1ccc2ccccc2c1 | 11.9 | > 10 | 23.7 | > 10 | > 10 | > 10 |  |  |
| NC(=O)NCCCCCOc1ccc2c(c1)OCO2 | 2.39 | > 10 | 22.1 | > 10 | > 10 | > 10 |  |  |
| CCOC(=O)CNC(=O)CCCCCOc1cccc2ccccc12 | 27.7 | > 10 | 0 | > 10 | > 10 | > 10 |  |  |
| CCCC(C)(C)c1ccc2c(c1)OC(C)(C)[C@@H]1CC=C(C)C[C@@H]21 | < 50 | > 10 | 50 | 0.55 | > 10 | 0.14 | > 71.4 |  |
| O=C(/C=C/C=C/c1ccc2ccccc2c1)NCCO | 4.91 | > 10 | 54.6 | 4.81 | > 10 | 1.27 | > 7.87 |  |
| CCNC(=O)NCCCCCOc1ccc2ccccc2c1 | 9.27 | > 10 | 27.1 | > 10 | > 10 | > 10 |  |  |
| O=C(/C=C/C=C/c1ccc2c(c1)-c1ccccc1C2)NC1CC1 | 13.6 | > 10 | 36.1 | > 10 | > 10 | > 10 |  |  |
| CCS(=O)(=O)NCCCCCOc1ccc2c(c1)OCO2 | 3.37 | > 10 | 29.5 | > 10 | > 10 | > 10 |  |  |
| O=C(/C=C/C=C/c1ccc2c(c1)OCCO2)NC1CC1 | 6.18 | > 10 | 26.5 | > 10 | > 10 | > 10 |  |  |
| O=C(CCCCCOc1cccc2ccccc12)NC1CC1 | 24.7 | > 10 | 27.8 | > 10 | > 10 | > 10 |  |  |
| CCOC(=O)CNC(=O)CCCCCOc1ccc2ccccc2c1 | 6.46 | > 10 | 25.5 | > 10 | > 10 | > 10 |  |  |
| O=C(CCCCCOc1ccc2ccccc2c1)NC1CC1 | 44.8 | > 10 | 31.4 | > 10 | > 10 | > 10 |  |  |
| CCS(=O)(=O)NCCCCCSc1ccc2ccccc2c1 | 23.6 | > 10 | 63.3 | 5.02 | > 10 | 1.32 | > 7.58 |  |
| O=C(/C=C/C=C/c1ccc2c(c1)-c1ccccc1C2)NCCO | 0 | > 10 | 24.2 | > 10 | > 10 | > 10 |  |  |
| O=C(/C=C/C=C/c1ccc2ccccc2c1)NC1CC1 | 18.5 | > 10 | 58.5 | 3.02 | > 10 | 0.81 | > 12.2 |  |
| O=C(CCCCCOc1cccc2ccccc12)NCCO | 27 | > 10 | 14.8 | > 10 | > 10 | > 10 |  |  |
| CCNC(=O)NCCCCCOc1cccc2ccccc12 | 18.5 | > 10 | 23.8 | > 10 | > 10 | > 10 |  |  |
| CC1(Cc2ccccc2)COc2cc(C(=O)N3CCCCC3)ccc21 (centres undefined) |  | > 10 |  |  |  |  |  | 1.37 |
| NC(=O)NCCCCCOc1cccc2ccccc12 | 6.88 | > 10 | 4.6 | > 10 | > 10 | > 10 |  |  |
| CCS(=O)(=O)NCCCCCOc1cccc2ccccc12 | 7.86 | > 10 | 30.9 | > 10 | > 10 | > 10 |  |  |
| O=C(CCCCCOc1ccc2ccccc2c1)NCCO | 3.65 | > 10 | 3.6 | > 10 | > 10 | > 10 |  |  |
| CCOC(=O)CNC(=O)/C=C/C=C/c1ccc2c(c1)OCCO2 | 4.77 | > 10 | 55.1 | 9.69 | > 10 | 2.56 | > 3.9 |  |
| CCNC(=O)NCCCCCOc1ccc2c(c1)OCO2 | 3.38 | > 10 | 22.6 | > 10 | > 10 | > 10 |  |  |
